Experimental data: patent US7713987B2, “Pyrimidine-2,4-diamines and their uses” (Rigel Pharmaceuticals, Inc., priority 2005, dated 2010)

Tests used:
[1] = Pharmacokinetics of the compounds in sprague-dawley rats (oral and IV bolus, plasma LC/MS/MS); type: in vivo
Protocol: Compounds were administered to rats orally at a dose of 4-5 mg/kg using PEG-400 as a vehicle. Selected compounds were also administered as an IV bolus at a dose of 1 mg/kg. Plasma samples were obtained from either the portal or jugular veins and analyzed by LC/MS/MS for both the parent pyrimidine-2,4-diamine and the prodrug compounds synthesized in the examples above. Bioavailability was calculated using the AUC of pyrimidine-2,4-diamine in jugular vein samples and the AUC of an IV bolus dose of pyrimidine-2,4-diamine. For selected compounds, portal vein samples were evaluated for both prodrug and pyrimidine-2,4-diamine and the information was used to determine the percent absorption of the orally administered dose.

[2] = Metabolic stability of prodrugs in rat hepatic microsomes; type: in vitro ADME; settings: in the presence of NADPH, first value of cell, read-out: T1/2 (half-life of prodrug)
Protocol: (§1) Selected compounds were incubated in rat and human hepatic microsomes (with and without NADPH) and analyzed by LC/MS/MS for both the prodrug and pyrimidine-2,4-diamine.
(§2) Studies were conducted in microsomes to determine whether the prodrug moieties could be hydrolyzed by CYP450 enzymes.

[3] = Metabolic stability of prodrugs in human hepatic microsomes; type: in vitro ADME; settings: in the presence of NADPH, second value of cell, read-out: T1/2 (half-life of prodrug)
Protocol: as §1, §2

Row | % of prodrug absorbed ([1]; AUC of prodrug in portal vein after oral dose vs AUC in jugular vein after IV dose, dose-corrected) | clearance ([1]; Sprague-Dawley, rat, plasma, IV bolus 1 mg/kg, read-out: Clearance rate of prodrug) | half-life [2] | half-life [3] | SMILES
1 | 20% | 72 mL/min/kg | < 5 min | < 5 min | COc1cc(N(C(=O)OCCN2CCOCC2)c2ncc(F)c(Nc3ccc4c(n3)NC(=O)C(C)(C)O4)n2)cc(OC)c1OC [Example 2, N4-(2,2-Dimethyl-3-oxo-4H-5-pyrido[1,4]oxazin-6-yl)-5-fluoro-N2-[[2-(morpholin-4-yl)ethoxy]carbonyl]-N2-(3,4,5-trimethoxyphenyl)-2,4-pyrimidinediamine]
2 |  |  | < 5 min | < 5 min | COc1cc(N(C(=O)OCC2CCCCN2C)c2ncc(F)c(Nc3ccc4c(n3)NC(=O)C(C)(C)O4)n2)cc(OC)c1OC (centres unmarked) [Example 3]

Row | SMILES | % of prodrug absorbed ([1]; AUC of prodrug in portal vein after oral dose vs AUC in jugular vein after IV dose, dose-corrected) | clearance ([1]; Sprague-Dawley, rat, plasma, IV bolus 1 mg/kg, read-out: Clearance rate of prodrug) | half-life [2] | half-life [3]
3 | COc1cc(N(C(=O)N[C@H](C(=O)OC(C)(C)C)C(C)C)c2ncc(F)c(Nc3ccc4c(n3)NC(=O)C(C)(C)O4)n2)cc(OC)c1OC [Example 8, 1S—N2-[[-1-(t-Butoxycarbonyl)-2-methylpropyl]aminocarbonyl]-N4-(2,2-dimethyl-3-oxo-4H-5-pyrido[1,4]oxazin-6-yl)-5-fluoro-N2-(3,4,5-trimethoxyphenyl)-2,4-pyrimidinediamine] |  |  | 35 min | 10 min
